Source: ChEMBL document CHEMBL3352411, “Structure-activity relationships (SAR) and structure-kinetic relationships (SKR) of bicyclic heteroaromatic acetic acids as potent CRTh2 antagonists II: lead optimization” (Bioorg Med Chem Lett, 2014)

What was measured:
[1] = biological target: T1, Prostaglandin D2 receptor 2 (Homo sapiens, UniProt Q9Y5Y4); test: Antagonist activity at CRTh2 receptor (unknown origin) overexpressed in CHOK1 cell membranes assessed as inhibition of [35S]-GTPgammaS binding measured after 2 hrs by liquid scintillation counting analysis; type: functional, CHO-K1
T1 sequence (Q9Y5Y4 whole entry): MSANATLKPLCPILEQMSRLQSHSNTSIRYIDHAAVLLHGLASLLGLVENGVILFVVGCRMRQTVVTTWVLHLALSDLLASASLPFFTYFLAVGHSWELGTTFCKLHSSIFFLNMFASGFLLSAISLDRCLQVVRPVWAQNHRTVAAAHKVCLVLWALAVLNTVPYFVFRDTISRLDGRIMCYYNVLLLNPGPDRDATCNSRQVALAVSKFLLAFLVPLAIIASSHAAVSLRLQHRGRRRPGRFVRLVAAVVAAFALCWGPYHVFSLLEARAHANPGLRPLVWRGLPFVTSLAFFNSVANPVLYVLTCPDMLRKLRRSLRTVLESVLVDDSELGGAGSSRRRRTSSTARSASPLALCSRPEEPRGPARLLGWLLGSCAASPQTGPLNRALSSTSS

[2] = biological target: T2, Prostaglandin D2 receptor 2 (Homo sapiens) (UniProt Q9Y5Y4); test: Binding affinity to CRTh2 receptor (unknown origin) overexpressed in CHOK1 cell membranes assessed as dissociation half life at 10 times IC50 concentration preincubated for 1 hr with 0.1 nM to 100 uM PGD2 and [35S]-GTPgammaS by liquid scintillation counting analysis; type: functional; details: CHO-K1
T2 sequence (whole entry): T1 sequence (Q9Y5Y4 whole entry)

[3] = Terminal half life in Wistar rat at 1 mg/kg, iv; type: ADME, organism-based; set-up: dose 1 mg/kg, route intravenous; details: in vivo, read-out: beta t1/2 (converted)
[4] = Cmax in Wistar rat at 1 mg/kg, iv; type: ADME, organism-based; set-up: dose 1 mg/kg, route intravenous; details: in vivo
[5] = Clearance in Wistar rat at 1 mg/kg, iv; type: ADME, organism-based; set-up: dose 1 mg/kg, route intravenous; details: in vivo
[6] = AUC (0 to infinity) in Wistar rat at 1 mg/kg, iv; type: ADME, organism-based; set-up: time infinity, dose 1 mg/kg, route intravenous; details: plasma
[7] = Volume of distribution at steady state in Wistar rat at 1 mg/kg, iv; type: ADME, organism-based; set-up: dose 1 mg/kg, route intravenous; details: in vivo, read-out: Vdss
[8] = Mean residence time in Wistar rat at 1 mg/kg, iv; type: ADME, organism-based; set-up: dose 1 mg/kg, route intravenous; details: in vivo
[9] = Oral bioavailability in Wistar rat at 10 mg/kg; type: ADME, organism-based; details: in vivo

Row | Structure (SMILES) | IC50 [1] [nM] | T1/2 [2] [h] | also measured
1 | CCN(Cc1cc(C(F)(F)F)ccc1-c1cn(CC(=O)O)c2cccnc12)C(=O)C1CC1 | 20 | 1.9 | 
2 | CCN(Cc1cc(C(F)(F)F)ccc1-c1nn(CC(=O)O)c2cccc(F)c12)C(=O)C1CC1 | 4.3 | 5 | 
3 | CCN(Cc1cc(C(F)(F)F)ccc1-n1cc(CC(=O)O)c2ccc(C)nc21)C(=O)COC | 9 | 21 | 
4 | CCN(Cc1cc(C(F)(F)F)ccc1-c1cc(CC(=O)O)n2ccc(C)nc12)C(=O)C1CC1 |  | 19 | 
5 | CCN(Cc1cc(C(F)(F)F)ccc1-c1nn(CC(=O)O)c2ccc(F)cc12)C(=O)C1CC1 |  | 1.4 | 
6 | CCN(Cc1ccccc1-n1cc(CC(=O)O)c2ccc(C)nc21)C(=O)C1CC1 |  | 8.8 | 
7 | Cc1ccc2c(CC(=O)O)cn(-c3ccc(C(F)(F)F)cc3CN(CCOc3ccccc3)C(=O)C3CC3)c2n1 | 4 | 40 | 
8 | CCN(Cc1cc(C(F)(F)F)ccc1-c1nn(CC(=O)O)c2cccc(C)c12)C(=O)C1CC1 |  | 2.3 | 
9 | CCN(Cc1cc(C(F)(F)F)ccc1-n1cc(CC(=O)O)c2ccc(C)nc21)C(=O)NCc1ccccc1 | 5 | 26 | 
10 | CCN(Cc1cc(C(F)(F)F)ccc1-c1nn(CC(=O)O)c2cccc(C#N)c12)C(=O)C1CC1 | 33 | 1.2 | 
11 | CCN(Cc1cc(C(F)(F)F)ccc1-c1cn(CC(=O)O)c2ccc(C(F)(F)F)nc12)C(=O)C1CC1 | 15 | 25 | 
12 | CCN(Cc1cc(C(F)(F)F)ccc1-c1cn(CC(=O)O)c2ccc(C)nc12)C(=O)C1CC1 | 17 | 21 | half-life [3]: 0.5 h; Cmax [4]: 366 ng/mL; clearance [5]: 134 mL/min/kg; AUC(0-inf) [6]: 126 ng·h/mL; Vd [7]: 2.7 L/kg; MRT [8]: 0.3 h
13 | CCN(Cc1cc(C(F)(F)F)ccc1-c1nn(CC(=O)O)c2cccc(Cl)c12)C(=O)C1CC1 | 6.3 | 3.2 | 
14 | CCN(Cc1cc(F)ccc1-n1cc(CC(=O)O)c2ccc(C)nc21)C(=O)C1CC1 | 4.7 | 11 | 
15 | CCN(Cc1cc(C(F)(F)F)ccc1-c1nn(CC(=O)O)c2ccccc12)C(=O)C1CC1 | 19 |  | 
16 | CCN(Cc1cc(F)ccc1-c1cn(CC(=O)O)c2ccc(C(F)(F)F)cc12)C(=O)C1CC1 | 14 | 20 | 
17 | CCN(Cc1cc(F)ccc1-c1cn(CC(=O)O)c2ccccc12)C(=O)C1CC1 |  | 2 | half-life [3]: 1.9 h; Cmax [4]: 431 ng/mL; clearance [5]: 76 mL/min/kg; AUC(0-inf) [6]: 222 ng·h/mL; Vd [7]: 5.4 L/kg; MRT [8]: 1.2 h
18 | CCN(Cc1cc(C(F)(F)F)ccc1-n1cc(CC(=O)O)c2ccc(C)nc21)C(=O)CN(C)C | 163 |  | 
19 | CCN(Cc1cc(C(F)(F)F)ccc1-c1cc(CC(=O)O)n2cccnc12)C(=O)C1CC1 |  | 2 | half-life [3]: 4.6 h; Cmax [4]: 910 ng/mL; clearance [5]: 26 mL/min/kg; AUC(0-inf) [6]: 639 ng·h/mL; Vd [7]: 4.2 L/kg; MRT [8]: 2.6 h
20 | CCN(Cc1cc(C(F)(F)F)ccc1-n1cc(CC(=O)O)c2ccc(C)nc21)C(=O)Cc1ccccc1 | 6 | 24 | 
21 | CCN(Cc1cc(S(C)(=O)=O)ccc1-n1cc(CC(=O)O)c2ccc(C)nc21)C(=O)C1CC1 | 40 |  | 
22 | CCN(Cc1cc(C(F)(F)F)ccc1-c1nn(CC(=O)O)c2cc(F)ccc12)C(=O)C1CC1 | 127 |  | 
23 | CCN(Cc1cc(C(F)(F)F)ccc1-n1cc(CC(=O)O)c2ccc(C)nc21)C(=O)c1ccccn1 | 97 |  | 
24 | CCN(Cc1cc(C(F)(F)F)ccc1-c1nn(CC(=O)O)c2cccc(OC)c12)C(=O)C1CC1 | 23 | 2.4 | 
25 | CCN(Cc1cc(C(F)(F)F)ccc1-c1nn(CC(=O)O)c2ccc(Cl)cc12)C(=O)C1CC1 |  | 2.8 | 
26 | CCN(Cc1cc(C(F)(F)F)ccc1-c1nn(CC(=O)O)c2ccc(F)c(Cl)c12)C(=O)C1CC1 |  | 3.3 | 
27 | CCN(Cc1cc(C(F)(F)F)ccc1-c1nn(CC(=O)O)c2ccc(Cl)c(F)c12)C(=O)C1CC1 | 15 | 10.5 | 
28 | CCN(Cc1cc(Cl)ccc1-n1cc(CC(=O)O)c2ccc(C)nc21)C(=O)C1CC1 | 5.2 | 31 | 
29 | CCN(Cc1cc(F)ccc1-n1cc(CC(=O)O)c2cccnc21)C(=O)C1CC1 |  | 1.3 | 

More lines, main results first:

Row | IC50 [1] [nM] | T1/2 [2] [h] | Structure (SMILES) | also measured
30 | 119 |  | CCN(Cc1cc(C(F)(F)F)ccc1-n1cc(CC(=O)O)c2ccc(C)cc21)C(=O)C1CC1 | 
31 | 7 | 22 | CCN(Cc1cc(C(F)(F)F)ccc1-n1cc(CC(=O)O)c2ccc(C)nc21)C(=O)CC1CC1 | 
32 | 5.8 | 16 | CCN(Cc1cc(OC(F)(F)F)ccc1-n1cc(CC(=O)O)c2ccc(C)nc21)C(=O)C1CC1 | 
33 | 4.2 | 26 | CCN(Cc1cc(C(F)(F)F)ccc1-c1cc(CC(=O)O)c2ccc(C)nn12)C(=O)C1CC1 | 
34 |  | 6.4 | CCN(Cc1cc(C(F)(F)F)ccc1-n1cc(CC(=O)O)c2ccc(C)nc21)C(C)=O | 
35 | 10 | 9.9 | CCc1ccc2c(CC(=O)O)cn(-c3ccc(C(F)(F)F)cc3CN(CC)C(=O)C3CC3)c2n1 | 
36 | 49 | 5.4 | CCN(Cc1cc(C(F)(F)F)ccc1-n1cc(CC(=O)O)c2ccc(C3CC3)nc21)C(=O)C1CC1 | 
37 | 4 | 7 | COCCN(Cc1cc(C(F)(F)F)ccc1-n1cc(CC(=O)O)c2ccc(C)nc21)C(=O)C1CC1 | 
38 | 5.9 | 24 | CCN(Cc1cc(C)ccc1-n1cc(CC(=O)O)c2ccc(C)nc21)C(=O)C1CC1 | 
39 | 11 | 32 | Cc1ccc2c(CC(=O)O)cn(-c3ccc(C(F)(F)F)cc3CN(CC3CC3)C(=O)C3CC3)c2n1 | 
40 | 11 | 29 | CCN(Cc1cc(C(F)(F)F)ccc1-n1cc(CC(=O)O)c2ccc(C(F)F)nc21)C(=O)C1CC1 | 
41 | 28 | 9.2 | Cc1ccc2c(CC(=O)O)cn(-c3ccc(C(F)(F)F)cc3CN(C(=O)C3CC3)C(C)C)c2n1 | 
42 | 11 | 27 | CCN(Cc1ccccc1-n1cc(CC(=O)O)c2ccc(C(F)(F)F)cc21)C(=O)C1CC1 | half-life [3]: 6.6 h; Cmax [4]: 1900 ng/mL; clearance [5]: 16 mL/min/kg; AUC(0-inf) [6]: 1070 ng·h/mL; Vd [7]: 3.2 L/kg; MRT [8]: 3.4 h
43 | 14 | 7.8 | Cc1ccc2c(CC(=O)O)cn(-c3ccc(C(F)(F)F)cc3CN(CCO)C(=O)C3CC3)c2n1 | 
44 | 10 | 21 | CCN(Cc1cc(C(F)(F)F)ccc1-n1cc(CC(=O)O)c2ccc(C)nc21)C(=O)C1CC1 | half-life [3]: 4.9 h; Cmax [4]: 1610 ng/mL; clearance [5]: 14 mL/min/kg; AUC(0-inf) [6]: 1220 ng·h/mL; Vd [7]: 1.8 L/kg; MRT [8]: 2.3 h; bioavailability [9]: 27%
45 | 135 |  | CCN(Cc1cc(C(F)(F)F)ccc1-n1cc(CC(=O)O)c2ccc(OC)nc21)C(=O)C1CC1 | 
46 |  | 2.3 | CCN(Cc1cc(C(F)(F)F)ccc1-n1cc(CC(=O)O)c2cccnc21)C(=O)C1CC1 | 
47 |  | 2.5 | CCN(Cc1cc(C(F)(F)F)ccc1-n1cc(CC(=O)O)c2ccccc21)C(=O)C1CC1 | 
48 | 10 | 24 | CCN(Cc1cc(C(F)(F)F)ccc1-n1cc(CC(=O)O)c2ccc(C)nc21)C(=O)C1CCC1 | 
49 | 54 |  | CCN(Cc1cc(C(F)(F)F)ccc1-n1cc(CC(=O)O)c2ccc(C(F)(F)F)nc21)C(=O)C1CC1 | 
50 | 9 | 1.8 | CCN(Cc1cc(C(F)(F)F)ccc1-c1nn(CC(=O)O)c2ccc(C)cc12)C(=O)C1CC1 | 
